Measurements as given in US10265286B2, “Sequelae of cardiopulmonary bypass-induced pulmonary injury” (Vanderbilt University, priority 2016, dated 2019).

Key:
Assay type in all cases: in vivo, human
[1] = Phase IB study: total respiratory support; conditions: invasive and non-invasive
Text: The analysis of total respiratory support includes any invasive and non-invasive respiratory support required during the study period. The mean total duration of respiratory support in the citrulline treatment group was less than half the duration in the placebo treatment group; the difference was statistically significant (Table 11).

[2] = Revised dosing protocol study: duration of respiratory support and cardiovascular parameters (Example 8)
Text: The study in this example was undertaken to test a revised dosing protocol designed to achieve and maintain therapeutic citrulline levels in the face of ultrafiltration and crystalloid replacement. […] The study recruited 22 patients randomized in equal numbers of 11 patients each to placebo and citrulline arms.
Early in the course of the study, it was recognized that one of the two participating centers routinely extubated all patients in the operating room immediately following cessation of cardiopulmonary bypass. This precluded use of the duration of mechanical ventilation as an endpoint. Instead, a post-hoc analysis was applied using the duration of all forms of ventilatory support as a possible endpoint. […] In contrast, contingency table analysis, shown in FIG. 16, did achieve borderline significance. Overall, the results are considered to represent a strong trend.

[3] = Phase IB study: plasma nitric oxide (NO metabolite) concentrations; conditions: each of the treatment groups
Method: Twenty two (22) patients were enrolled and treated. Patients received an IV citrulline bolus of 150 mg/kg or placebo at the initiation of CPB, followed by the addition of L-citrulline at a concentration of 200 μmol/L or placebo to the filtration or hemoconcentration replacement fluid used during CPB. A citrulline bolus of 20 mg/kg was administered 30 minutes after decannulation from CPB, immediately followed by a 9-mg/kg/hr continuous infusion of citrulline or placebo for 48 hours. Study participation ended at discharge or at Day 28 whichever came first.
Plasma citrulline concentration levels were the primary PK variable; these were assessed in blood samples collected at 7 perioperative time points. Secondary PK variables were concentrations of arginine and nitric oxide (NO) metabolites in the same sample set. PK values were compared between groups.

NC(=O)NCCCC(N)C(=O)O (centres unmarked) [Citrulline, 2-amino-5-(carbamoylamino)pentanoic acid]
Total duration of respiratory support, Diff (CI) placebo vs citrulline [1]: 50.7 (5.4, 96.0) hours
Total duration of respiratory support, Median [1]: 23.6 h
Total duration of respiratory support, Range [1]: 0.0 to 100.1 h
Total duration of respiratory support, Mean ± SD ([1]; N = 11): 31.2 ± 28.27 h
systolic and diastolic blood pressure versus placebo ([2]; FIG. 18A): No significant change in systolic and diastolic blood pressure
mean arterial pressure versus placebo ([2]; FIG. 18B): No significant change in the mean arterial pressure
patients with Duration of Respiratory Support ≤50 hours ([2]; contingency table, placebo 3): 7
patients with Duration of Respiratory Support >50 hours ([2]; contingency table, placebo 8): 2
inotrope scores versus placebo ([2]; particularly from 15 to 18 hours onward following ICU admission (FIG. 17)): markedly better inotrope scores
adverse effects upon hemodynamic parameters ([2]; revised dosing protocol): No adverse effects upon hemodynamic parameters were observed
plasma nitric oxide levels across the sampling time points [3]: remained more or less unchanged
